This note sets out measurements from ChEMBL document CHEMBL5233229, “Recent advances in the development of ubiquitin-specific-processing protease 7 (USP7) inhibitors” (Eur J Med Chem, 2020).

In assay [1] the target is T1, Ubiquitin carboxyl-terminal hydrolase 7 (Homo sapiens, UniProt Q93009). The assay is described as follows: Inhibition of human USP7 using Ub-EKL as substrate.
Assay [2] addresses T1, Ubiquitin carboxyl-terminal hydrolase 7. In words: Inhibition of human USP7 using ubiquitin-Rh110 as substrate incubated for 23 to 45 mins by fluorescence based assay.

T1 sequence (Q93009 whole entry): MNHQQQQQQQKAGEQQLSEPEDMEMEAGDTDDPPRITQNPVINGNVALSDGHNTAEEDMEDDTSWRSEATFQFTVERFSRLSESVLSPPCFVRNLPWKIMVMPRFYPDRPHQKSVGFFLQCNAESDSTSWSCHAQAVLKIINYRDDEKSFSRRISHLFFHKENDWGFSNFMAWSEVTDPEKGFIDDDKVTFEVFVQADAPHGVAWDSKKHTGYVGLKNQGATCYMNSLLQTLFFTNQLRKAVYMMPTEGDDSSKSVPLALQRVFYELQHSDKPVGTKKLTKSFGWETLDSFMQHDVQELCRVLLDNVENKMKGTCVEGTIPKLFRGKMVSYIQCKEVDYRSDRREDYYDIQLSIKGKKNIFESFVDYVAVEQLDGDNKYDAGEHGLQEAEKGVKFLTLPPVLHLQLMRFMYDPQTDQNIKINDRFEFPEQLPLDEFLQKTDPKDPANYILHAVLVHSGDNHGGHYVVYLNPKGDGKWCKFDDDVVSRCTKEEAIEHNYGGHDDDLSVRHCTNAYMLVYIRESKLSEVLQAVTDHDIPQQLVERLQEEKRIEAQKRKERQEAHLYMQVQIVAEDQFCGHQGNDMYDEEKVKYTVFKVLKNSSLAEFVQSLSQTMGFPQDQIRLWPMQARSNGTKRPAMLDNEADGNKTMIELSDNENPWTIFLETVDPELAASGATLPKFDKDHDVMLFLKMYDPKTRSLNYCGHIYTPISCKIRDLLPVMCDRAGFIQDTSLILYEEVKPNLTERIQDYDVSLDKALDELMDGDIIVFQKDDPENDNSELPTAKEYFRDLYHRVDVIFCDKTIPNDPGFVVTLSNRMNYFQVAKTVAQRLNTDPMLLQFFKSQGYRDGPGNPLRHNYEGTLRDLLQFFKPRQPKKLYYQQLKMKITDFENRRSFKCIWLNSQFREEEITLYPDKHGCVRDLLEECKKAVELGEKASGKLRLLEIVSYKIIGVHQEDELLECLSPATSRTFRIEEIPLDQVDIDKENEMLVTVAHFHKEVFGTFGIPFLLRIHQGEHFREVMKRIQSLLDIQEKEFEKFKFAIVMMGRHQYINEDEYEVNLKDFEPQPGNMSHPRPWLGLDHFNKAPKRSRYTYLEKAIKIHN

In assay [1], `O=C(Nc1cnccn1)c1nnc(Sc2c(Cl)cncc2Cl)s1` returned an EC50 of less than 1000 nM.

As to `O=C(Nc1ccc2c(c1)S(=O)(=O)C=C2)c1cnc(Sc2c(Cl)cncc2Cl)s1`, the midpoint of the response in assay [1], the EC50, lay at 2000 nM.

`O=C(Nc1cnc2ccccc2c1)c1nnc(Sc2c(Cl)cncc2Cl)s1` yielded an EC50 in assay [1] of 1000 nM.

`O=C(c1ccc(-c2cnc3ccccc3c2)cc1)N1CCC(O)(Cn2cnn3cccc3c2=O)CC1`: the IC50 in assay [2] came out at 1000 nM.

Consider `O=C(c1ccc(-n2cccn2)cc1)N1CCC(O)(Cn2cnn3c(-c4ccc(F)cc4)ncc3c2=O)CC1`, for which the IC50 in assay [2] turned out to be 1000 nM.

On to `O=C(c1ccc(-c2ccc(C(=O)N3CCC(O)(Cn4cnn5cccc5c4=O)CC3)c(Cl)c2)cc1)N1CCCCC1`, for which it took 1000 nM to reach half-maximal inhibition in assay [2] (IC50).

Take `O=C(c1cccc(-c2cccc(Cl)c2)c1)N1CCC(O)(Cn2cnn3cccc3c2=O)CC1`: the IC50 in assay [2] was found to be 1000 nM.

`CS(=O)(=O)c1cccc(NC(=O)c2nnc(Sc3c(Cl)cncc3Cl)s2)c1`: the EC50 in assay [1] stood at 1000 nM.

For the compound `O=C(Nc1ccc2c(c1)S(=O)(=O)CC2)c1nnc(Sc2c(Cl)cncc2Cl)s1`, the concentration for a half-maximal effect (EC50) in assay [1] was less than 1000 nM.

In the case of `Cc1ccc(-c2cccc(C(=O)N3CCC(O)(Cn4cnn5cccc5c4=O)CC3)c2)cc1`, in assay [2], the IC50 amounted to 1000 nM.

In assay [2], `O=C(c1ccc(Cc2cccs2)cc1)N1CCC(O)(Cn2cnn3cccc3c2=O)CC1` registered an IC50 of 1000 nM.

Consider `O=C(c1ccccc1)c1ccc(C(=O)N2CCC(O)(Cn3cnn4cccc4c3=O)CC2)cc1`, for which, in assay [2], the midpoint of inhibition, the IC50, lay at 1000 nM.

`C[C@H](CC(=O)N1CCC(O)(Cn2cnn3cccc3c2=O)CC1)c1ccccc1` returned an IC50 in assay [2] of less than 200 nM.

Consider `Cc1ccc2[nH]ncc2c1-c1cccc(C(=O)N2CCC(O)(Cn3cnn4cccc4c3=O)CC2)c1`, for which the midpoint of inhibition in assay [2], the IC50, lay at 1000 nM.

In assay [2], `Cc1cc2c(=O)n(CC3(O)CCN(C(=O)CC(C)c4ccccc4)CC3)cnn2c1` (centres undefined) registered an IC50 of 1000 nM.

Compound `O=C(c1cnc(C2CC2)o1)N1CCC(O)(Cn2cnn3c(-c4ccc(F)cc4)ncc3c2=O)CC1` gave an IC50 in assay [2] of 1000 nM.

In turn, `CCC(Cc1ccccc1)C(=O)N1CCC(O)(Cn2cnn3cccc3c2=O)CC1` (centres undefined) displayed an IC50 in assay [2] of 1000 nM.

The compound `O=C(c1cccc(-c2ccc(Cl)cc2)c1)N1CCC(O)(Cn2cnn3cccc3c2=O)CC1` showed an IC50 in assay [2] of 1000 nM.

As for `O=C(c1cccc(-c2ccc3scnc3c2)c1)N1CCC(O)(Cn2cnn3cccc3c2=O)CC1`, the IC50 in assay [2] turned out to be 1000 nM.

As to `O=C(c1ccccc1)N1CCC(O)(Cn2cnn3c(-c4ccccc4)ncc3c2=O)CC1`, in assay [2], the midpoint of inhibition, the IC50, lay at 1000 nM.

In assay [2], `C=C(C)C(=O)Nc1ccccc1-c1ccc(C(=O)N2CCC(O)(Cn3cnn4cccc4c3=O)CC2)cc1` had an IC50 of 1000 nM.

In assay [2], `O=C(Nc1cc2c(=O)n(CC3(O)CCN(C(=O)C4CC4)CC3)cnn2c1)c1csc(-c2ccccc2)n1` showed an IC50 of 1000 nM.

With `O=C(c1cccc(-c2ccccc2)c1)N1CCC(O)(Cn2cnn3cccc3c2=O)CC1`, in assay [2], the half-inhibitory concentration (IC50) is 1000 nM.

Compound `O=C(c1cccc(-c2ccc3ncccc3c2)c1)N1CCC(O)(Cn2cnn3cccc3c2=O)CC1` yielded an IC50 in assay [2] of 1000 nM.

Regarding `Cc1ccc(-c2ncc3c(=O)n(CC4(O)CCN(C(=O)C[C@H](C)n5cccn5)CC4)cnn23)cc1`, in assay [2], 1000 nM corresponded to half-maximal inhibition (IC50).

In assay [2], `O=C(COc1cccc(Cl)c1Cl)Nc1cc2c(=O)n(CC3(O)CCN(C(=O)C4CC4)CC3)cnn2c1` came in with an IC50 of 1000 nM.

Regarding `CN(C)C(=O)c1ccc(-c2cccc(C(=O)N3CCC(O)(Cn4cnn5cccc5c4=O)CC3)c2)cc1`, in assay [2], the IC50 was 1000 nM.

In turn, `CC(CC(=O)N1CCC(O)(Cn2cnn3cc(Cl)cc3c2=O)CC1)c1ccccc1` (centres undefined) yielded an IC50 in assay [2] of 1000 nM.

The compound `O=C(c1ccc(F)cc1)N1CCC(O)(Cn2cnn3c(-c4ccc(F)cc4)ncc3c2=O)CC1` yielded a half-maximal inhibitory concentration (IC50) in assay [2] of 1000 nM.

In the case of `O=C(c1cccc(-c2ccccc2F)c1)N1CCC(O)(Cn2cnn3cccc3c2=O)CC1`, the midpoint of inhibition in assay [2], the IC50, lay at 1000 nM.

`Cc1ccc2cc(-c3ccc(C(=O)N4CCC(O)(Cn5cnn6cccc6c5=O)CC4)cc3)ccc2n1` came in with an IC50 in assay [2] of 1000 nM.

For the compound `Cc1ccccc1-c1cccc(C(=O)N2CCC(O)(Cn3cnn4cccc4c3=O)CC2)c1`, the IC50 in assay [2] turned out to be 1000 nM.

Consider `Cc1ccc(-c2ncc3c(=O)n(CC4(O)CCN(C(=O)CC(C)n5cccn5)CC4)cnn23)cc1` (centres undefined), for which the midpoint of inhibition in assay [2], the IC50, lay at 1000 nM.

Compound `Cn1c(-c2cccc(C(=O)N3CCC(O)(Cn4cnn5cccc5c4=O)CC3)c2)cc2ccccc21` gave an IC50 in assay [2] of less than 1000 nM.

Turning to `O=C(c1ccc(S(=O)(=O)c2ccccc2)cc1)N1CCC(O)(Cn2cnn3cccc3c2=O)CC1`, in assay [2], the IC50 was found to be 1000 nM.

The compound `Cc1cc(C)n(Cc2ccc(C(=O)N3CCC(O)(Cn4cnn5cccc5c4=O)CC3)cc2)n1` returned an IC50 in assay [2] of 1000 nM.

In turn, `COc1ccc(-c2cccc(C(=O)N3CCC(O)(Cn4cnn5cccc5c4=O)CC3)c2)cc1` registered an IC50 in assay [2] of 1000 nM.

For the compound `O=C(c1ccc(Cn2ccnc2)cc1)N1CCC(O)(Cn2cnn3cccc3c2=O)CC1`, half-maximal inhibition in assay [2] (IC50) required 1000 nM.

`CC(=O)Nc1cc2c(=O)n(CC3(O)CCN(C(=O)C[C@@H](C)c4ccccc4)CC3)cnn2c1` showed an IC50 in assay [2] of less than 1000 nM.

On to `CC(C)(c1ccccc1)c1ccc(C(=O)N2CCC(O)(Cn3cnn4cccc4c3=O)CC2)cc1`, for which the IC50 in assay [2] was found to be 1000 nM.

In assay [2], `CNC(=O)Nc1cc2c(=O)n(CC3(O)CCN(C(=O)C[C@@H](C)c4ccccc4)CC3)cnn2c1` yielded an IC50 of less than 1000 nM.

Regarding `Cc1ccc2c(=O)n(CC3(O)CCN(C(=O)CC(C)c4ccccc4)CC3)cnn12` (centres undefined), the IC50 in assay [2] was less than 1000 nM.

`CCN(c1ccccc1)c1ccc(C(=O)N2CCC(O)(Cn3cnn4cccc4c3=O)CC2)cc1` yielded an IC50 in assay [2] of 1000 nM.

Turning to `CC(C)(C)C(Cc1ccccc1)C(=O)N1CCC(O)(Cn2cnn3cccc3c2=O)CC1` (centres undefined), in assay [2], the IC50 was determined as 1000 nM.

`CC(CC(=O)N1CCC(O)(Cn2cnn3cccc3c2=O)CC1)n1cccc1` (centres undefined) came in with an IC50 in assay [2] of less than 200 nM.

On to `O=C(c1cccc(-c2cccc(F)c2)c1)N1CCC(O)(Cn2cnn3cccc3c2=O)CC1`, for which, in assay [2], the IC50 came out at 1000 nM.

In assay [2], `O=C(c1ccc(Sc2ccccc2)cc1)N1CCC(O)(Cn2cnn3cccc3c2=O)CC1` had a half-maximal inhibitory concentration (IC50) of 1000 nM.

Take `CC(CC(=O)N1CCC(O)(Cn2cnn3cccc3c2=O)CC1)c1ccccc1` (centres undefined): the IC50 in assay [2] was less than 1000 nM.

The compound `O=C(c1ccc(-c2ccc(C(=O)N3CCC(O)(Cn4cnn5cccc5c4=O)CC3)c(C3CCCC3)c2)cc1)N1CCCC1` had an IC50 in assay [2] of 1000 nM.

`O=C(c1ccc(-c2ccc3ncccc3c2)cc1)N1CCC(O)(Cn2cnn3cccc3c2=O)CC1`: the 50% inhibitory concentration (IC50) in assay [2] stood at 1000 nM.

Take `Cc1cc(C(F)(F)F)nn1Cc1ccc(C(=O)N2CCC(O)(Cn3cnn4cccc4c3=O)CC2)cc1`: the half-inhibitory concentration (IC50) in assay [2] came to 1000 nM.

As to `O=C(c1cccc(-c2ccc3c(c2)OCO3)c1)N1CCC(O)(Cn2cnn3cccc3c2=O)CC1`, the IC50 in assay [2] was found to be 1000 nM.

Regarding `O=C(c1ccc(Cn2nnc3ccccc32)cc1)N1CCC(O)(Cn2cnn3cccc3c2=O)CC1`, the IC50 in assay [2] turned out to be 1000 nM.

The compound `O=C(c1ccc(-c2cccc(C(=O)N3CCC(O)(Cn4cnn5cccc5c4=O)CC3)c2)cc1)N1CCCC1` registered an IC50 in assay [2] of 1000 nM.

The compound `Cc1cc2c(=O)n(CC3(O)CCN(C(=O)C(C)Cc4ccccc4)CC3)cnn2c1` (centres undefined) showed an IC50 in assay [2] of 1000 nM.

Consider `Cc1ccc(OCC(=O)Nc2cc3c(=O)n(CC4(O)CCN(C(=O)C5CC5)CC4)cnn3c2)cc1C`, for which the IC50 in assay [2] stood at 1000 nM.

For the compound `O=C(c1ccc(Cn2cnc3ccccc32)cc1)N1CCC(O)(Cn2cnn3cccc3c2=O)CC1`, inhibition in assay [2] was half-maximal at 1000 nM (IC50).

`Cc1ccc2c(=O)n(CC3(O)CCN(C(=O)C(C)Cc4ccccc4)CC3)cnn12` (centres undefined): the half-maximal inhibitory concentration (IC50) in assay [2] was determined as 1000 nM.

Compound `NC(=O)c1ccc(-c2cccc(C(=O)N3CCC(O)(Cn4cnn5cccc5c4=O)CC3)c2)cc1` yielded a half-inhibitory concentration (IC50) in assay [2] of 1000 nM.
